From publication PMC4824473, “Dose-Response Analysis of Chemotactic Signaling Response in Salmonella typhimurium LT2 upon Exposure to Cysteine / Cystine Redox Pair” (PLoS ONE, 2016) come the findings set out here.

The target in this test is T1, Tar (Salmonella enterica, UniProt P02941).
T1 construct: native chromosomal full-length receptor, homodimer in mixed receptor arrays; strain TSS868 (LT2 delta-tsr delta-cheY delta-cheZ) with CheZ-CFP/CheY-YFP plasmid pVS88; other native receptors present
T1 sequence (P02941 whole entry): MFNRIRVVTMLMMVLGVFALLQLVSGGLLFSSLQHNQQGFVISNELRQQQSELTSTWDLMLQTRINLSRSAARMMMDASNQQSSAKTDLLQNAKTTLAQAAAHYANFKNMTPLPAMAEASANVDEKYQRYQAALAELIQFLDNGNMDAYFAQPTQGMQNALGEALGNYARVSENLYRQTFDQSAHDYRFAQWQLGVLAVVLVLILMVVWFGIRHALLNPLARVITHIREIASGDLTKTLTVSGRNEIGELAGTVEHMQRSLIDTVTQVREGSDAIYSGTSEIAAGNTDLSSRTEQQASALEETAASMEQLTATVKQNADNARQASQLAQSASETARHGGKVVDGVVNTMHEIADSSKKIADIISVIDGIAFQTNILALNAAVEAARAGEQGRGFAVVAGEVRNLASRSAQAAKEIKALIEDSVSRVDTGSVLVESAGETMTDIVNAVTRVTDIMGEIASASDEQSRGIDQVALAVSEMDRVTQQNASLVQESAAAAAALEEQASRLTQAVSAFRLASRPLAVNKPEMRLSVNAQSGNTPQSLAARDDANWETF
Nature of the test: in vivo CheZ-CFP/CheY-YFP FRET of receptor-kinase activity, Hill fit. Type of test: cell-based. To be noted: live delta-tsr cells, motility buffer pH 7.0, room temperature; attractant; Hill coefficient 1.5; other receptors present; about 1% of Cys possibly oxidized to cystine; read-out: half maximum.

With `N[C@@H](CS)C(=O)O` [Cys], the EC50 was 128 µM.
